Data: PubChem BioAssay AID1963845 (Molecular Pharmacology Branch, DTP, NCI, 2024)

Tested on: 429239-143-T-J1-PDC complex spheroid viability
Assay: Anticancer human tumor 429239-143-T-J1-PDC patient-derived small cell lung carcinoma cell line growth inhibition [POLQ]
Conditions: for IC50: curve of first compound; for viability, T/C: stronger effect = lower value
Protocol: Multicellular complex tumor spheroid response to Polymerase (POL) inhibitors (novobiocin, ART-558, RP6685) in combination with a variety of drugs and investigational agents in selected tumor cell lines
The POL inhibitors (novobiocin, ART-558, and RP6685) were evaluated both individually and in combination with standard of care and investigational anticancer small molecules within a complex spheroid model of solid tumors. . Complex spheroids include a stromal component modeled by human endothelial cells (HUVEC) and fibroblasts modeled by human mesenchymal stem cells (MSCs). The concentration ranges selected for each drug and investigational agent were based upon clinically achievable concentrations if the clinical Cmax of the agent was known.
Compounds. The drugs and investigational agents: novobiocin (NSC847541), ART-558 (NSC835418), RP-6685 (NSC848927), peposertib (NSC802822), ceralasertib (NSC780249), elimusertib (NSC800525), camonsertib (NSC841442), AZD-1390 (NSC803789), olaparib (NSC753686), talazoparib (NSC767125), rucaparib (NSC756644), sotorasib (NSC818433), MRTX-1133 (NSC836407), SN-38 (NSC673596), topotecan (NSC609699), epotoside (NSC141540), doxorubicin (NSC123127), gemcitabine (NSC613327), 5-fluorouracil (NSC19893), paclitaxel (NSC125973), vemurafenib (NSC761431), MSA-2 (NSC828583), SN-011 (NSC837082), adavosertib (NSC754352), prexasertib (NSC758257), carboplatin (NSC241240) and oxaliplatin (NSC266046), were obtained from the National Cancer Institute (NCI) Developmental Therapeutics Program Chemical Repository (21). The FDA-approved anticancer drug set is available from the Developmental Therapeutics Program at https://dtp.cancer.gov/organization/dscb/obtaining/. […] The stock solutions were prepared in dimethyl sulfoxide (DMSO, Sigma-Aldrich, St. Louis, MO, cat. D2650), except for the platinum compounds which were prepared in saline (Quality Biological, Gaithersburg, MD, cat. 114-055-101), at 800-fold the tested concentration and stored at -70 degrees C prior to their use. All drugs and investigational agents were tested over a range starting from a high concentration at or near the clinical Cmax and decreasing in half-log increments. If the clinical Cmax for an agent had not been determined, the highest concentration tested was 10 microM, except for SN-38, which was tested at a high concentration of 1 microM.
Cell Culture. All cells were maintained in an incubator at 37 degrees C and 5% CO2 with 95% humidity. The PDC lines were cultured according to standard operating procedures established by the NCI PDMR (https://pdmr.cancer.gov). Table 3 of the manuscript, lists the cell lines along with the number of the three cell types plated to form the mct-spheroids and media for tumor cell growth. After thawing, all PDC lines, except 997537-175-T-J1-PDC and 415267-285-R-J2-PDC, were cultured in Matrigel-coated flasks prepared with a working solution of 1X Ham's F-12 nutrient mix, without supplementation (Thermo Fisher Scientific, cat. 11765054), 100 U/mL penicillin-streptomycin (Thermo Fisher Scientific, cat. 15140122), and 2.5% Matrigel (Corning Inc., Corning, NY, cat. 354248) for the first three passages. The two PDC lines 997537-175-T-J1-PDC and 415267-285-R-J2-PDC were cultured on uncoated flasks. The 857933-349-R-J2-PDC line was cultured in 6C/Colon 1B media containing advanced DMEM/F-12 (Thermo Fisher Scientific, cat. 12634028), 10 mM HEPES (Thermo Fisher Scientific, cat. 15630080), 1X GlutaMAX supplement (Thermo Fisher Scientific, cat. 35050061), 0.1 mg/mL primocin (InvivoGen, San Diego, CA, cat. ant-pm-2), 10% defined fetal bovine serum, heat inactivated (HyClone Laboratories Inc., Logan, UT, cat. SH30070.03HI), 50% L-WRN conditioned media (ATCC, cat. CRL-3276), 1.25 mM N-Acetyl-L-cysteine (Sigma-Aldrich, cat. A9165), 10 mM nicotinamide (Sigma-Aldrich, cat. N0636), 1X B-27 supplement (Thermo Fisher Scientific, cat. 17504044), 1X N-2 supplement (Thermo Fisher Scientific, cat. […]

[1] = second compound 0.0316 µM, first compound 0.0316 µM
[2] = second compound 0.0316 µM, first compound 0.1 µM
[3] = second compound 0.0316 µM, first compound 0.316 µM
[4] = second compound 0.0316 µM, first compound 1 µM
[5] = second compound 0.1 µM, first compound 0.0316 µM
[6] = second compound 0.1 µM, first compound 0.1 µM
[7] = second compound 0.1 µM, first compound 0.316 µM
[8] = second compound 0.1 µM, first compound 1 µM
[9] = second compound 0.316 µM, first compound 0.0316 µM
[10] = second compound 0.316 µM, first compound 0.1 µM
[11] = second compound 0.316 µM, first compound 0.316 µM
[12] = second compound 0.316 µM, first compound 1 µM
[13] = second compound 1 µM, first compound 0.0316 µM
[14] = second compound 1 µM, first compound 0.1 µM
[15] = second compound 1 µM, first compound 0.316 µM
[16] = second compound 1 µM, first compound 1 µM
[17] = second compound 3.16 µM, first compound 0.0316 µM
[18] = second compound 3.16 µM, first compound 0.1 µM
[19] = second compound 3.16 µM, first compound 0.316 µM
[20] = second compound 3.16 µM, first compound 1 µM
[21] = second compound 10 µM, first compound 0.0316 µM
[22] = second compound 10 µM, first compound 0.1 µM
[23] = second compound 10 µM, first compound 0.316 µM
[24] = second compound 10 µM, first compound 1 µM
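Further: luminescence signal used as surrogate measure of viable cells; spheroids exposed to compounds for seven days before readout.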
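Wherever viability, T/C is given: 100% = DMSO vehicle control viability as luminescence relative to vehicle.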

Question: For `C=CCn1c(=O)c2cnc(Nc3ccc(N4CCN(C)CC4)cc3)nc2n1-c1cccc(C(C)(C)O)n1` + COC1C(OC(N)=O)C(O)C(Oc2ccc3c(O)c(NC(=O)c4ccc(O)c(CC=C(C)C)c4)c(=O)oc3c2C)OC1(C)C, which IC50 (second compound 0.0316 µM) is on record?
Answer: 576 nM

Question: And the IC50 (second compound 0.1 µM)?
Answer: 464 nM

Question: And the IC50 (second compound 0.316 µM)?
Answer: 591 nM

Question: What about the IC50 (second compound 1 µM) of the same compound?
Answer: 580 nM

Question: And the IC50 (second compound 3.16 µM)?
Answer: 632 nM

Question: And the IC50 (second compound 10 µM)?
Answer: 600 nM

Question: What about the viability, T/C (second compound 0.0316 µM, first compound 0.00316 µM) of the same compound?
Answer: 105%

Question: And the viability, T/C (second compound 0.0316 µM, first compound 0.01 µM)?
Answer: 93%

Question: And the viability, T/C [1]?
Answer: 104%

Question: What about the viability, T/C [2] of the same compound?
Answer: 104%

Question: And the viability, T/C [3]?
Answer: 85.7%

Question: And the viability, T/C [4]?
Answer: 17.1%

Question: And the viability, T/C (second compound 0.1 µM, first compound 0.00316 µM)?
Answer: 92%

Question: What about the viability, T/C (second compound 0.1 µM, first compound 0.01 µM) of the same compound?
Answer: 104%

Question: And the viability, T/C [5]?
Answer: 92.6%

Question: And the viability, T/C [6]?
Answer: 105%

Question: What about the viability, T/C [7] of the same compound?
Answer: 66%

Question: What about the viability, T/C [8] of the same compound?
Answer: 17.8%

Question: And the viability, T/C (second compound 0.316 µM, first compound 0.00316 µM)?
Answer: 110%

Question: What about the viability, T/C (second compound 0.316 µM, first compound 0.01 µM) of the same compound?
Answer: 88.2%

Question: And the viability, T/C [9]?
Answer: 107%

Question: What about the viability, T/C [10] of the same compound?
Answer: 118%

Question: What about the viability, T/C [11] of the same compound?
Answer: 82.5%

Question: And the viability, T/C [12]?
Answer: 22.7%

Question: What about the viability, T/C (second compound 1 µM, first compound 0.00316 µM) of the same compound?
Answer: 95.3%

Question: And the viability, T/C (second compound 1 µM, first compound 0.01 µM)?
Answer: 83.5%

Question: What about the viability, T/C [13] of the same compound?
Answer: 101%

Question: And the viability, T/C [14]?
Answer: 88.7%

Question: What about the viability, T/C [15] of the same compound?
Answer: 82.2%

Question: And the viability, T/C [16]?
Answer: 21%

Question: What about the viability, T/C (second compound 3.16 µM, first compound 0.00316 µM) of the same compound?
Answer: 98.8%

Question: And the viability, T/C (second compound 3.16 µM, first compound 0.01 µM)?
Answer: 90%

Question: And the viability, T/C [17]?
Answer: 94.2%

Question: And the viability, T/C [18]?
Answer: 96.3%

Question: And the viability, T/C [19]?
Answer: 97.1%

Question: And the viability, T/C [20]?
Answer: 20%

Question: What about the viability, T/C (second compound 10 µM, first compound 0.00316 µM) of the same compound?
Answer: 91.7%

Question: What about the viability, T/C (second compound 10 µM, first compound 0.01 µM) of the same compound?
Answer: 83.2%

Question: And the viability, T/C [21]?
Answer: 85.1%

Question: And the viability, T/C [22]?
Answer: 83.7%

Question: And the viability, T/C [23]?
Answer: 84%

Question: And the viability, T/C [24]?
Answer: 22.8%

Question: For `Nc1ccn(C2OC(CO)C(O)C2(F)F)c(=O)n1` (centres undefined) + COC1C(OC(N)=O)C(O)C(Oc2ccc3c(O)c(NC(=O)c4ccc(O)c(CC=C(C)C)c4)c(=O)oc3c2C)OC1(C)C, which IC50 (second compound 0.0316 µM) is on record?
Answer: < 31.6 nM

Question: And the IC50 (second compound 0.1 µM)?
Answer: < 31.6 nM

Question: And the IC50 (second compound 0.316 µM)?
Answer: < 31.6 nM

Question: And the IC50 (second compound 1 µM)?
Answer: < 31.6 nM

Question: And the IC50 (second compound 3.16 µM)?
Answer: < 31.6 nM

Question: What about the IC50 (second compound 10 µM) of the same compound?
Answer: < 31.6 nM

Question: And the viability, T/C [1]?
Answer: 23.4%

Question: And the viability, T/C [2]?
Answer: 19.2%

Question: And the viability, T/C [3]?
Answer: 19.7%

Question: And the viability, T/C [4]?
Answer: 16.5%

Question: And the viability, T/C (second compound 0.0316 µM, first compound 3.16 µM)?
Answer: 17.5%

Question: What about the viability, T/C (second compound 0.0316 µM, first compound 10 µM) of the same compound?
Answer: 16.4%

Question: And the viability, T/C [5]?
Answer: 15.1%

Question: What about the viability, T/C [6] of the same compound?
Answer: 17.8%

Question: What about the viability, T/C [7] of the same compound?
Answer: 18.2%

Question: What about the viability, T/C [8] of the same compound?
Answer: 17.4%

Question: And the viability, T/C (second compound 0.1 µM, first compound 3.16 µM)?
Answer: 17.3%

Question: What about the viability, T/C (second compound 0.1 µM, first compound 10 µM) of the same compound?
Answer: 16.1%

Question: And the viability, T/C [9]?
Answer: 22.2%

Question: What about the viability, T/C [10] of the same compound?
Answer: 17.1%

Question: And the viability, T/C [11]?
Answer: 16.7%

Question: What about the viability, T/C [12] of the same compound?
Answer: 18.4%

Question: And the viability, T/C (second compound 0.316 µM, first compound 3.16 µM)?
Answer: 16.9%

Question: And the viability, T/C (second compound 0.316 µM, first compound 10 µM)?
Answer: 14.8%

Question: And the viability, T/C [13]?
Answer: 17.4%

Question: What about the viability, T/C [14] of the same compound?
Answer: 17.4%

Question: What about the viability, T/C [15] of the same compound?
Answer: 17.8%

Question: And the viability, T/C [16]?
Answer: 16.1%

Question: And the viability, T/C (second compound 1 µM, first compound 3.16 µM)?
Answer: 18.4%

Question: And the viability, T/C (second compound 1 µM, first compound 10 µM)?
Answer: 21%

Question: And the viability, T/C [17]?
Answer: 14.9%

Question: And the viability, T/C [18]?
Answer: 13.9%

Question: What about the viability, T/C [19] of the same compound?
Answer: 19.1%

Question: And the viability, T/C [20]?
Answer: 12.5%

Question: And the viability, T/C (second compound 3.16 µM, first compound 3.16 µM)?
Answer: 16.3%

Question: And the viability, T/C (second compound 3.16 µM, first compound 10 µM)?
Answer: 13.5%

Question: What about the viability, T/C [21] of the same compound?
Answer: 14.5%

Question: What about the viability, T/C [22] of the same compound?
Answer: 16.9%

Question: And the viability, T/C [23]?
Answer: 17.5%

Question: What about the viability, T/C [24] of the same compound?
Answer: 20.4%

Question: What about the viability, T/C (second compound 10 µM, first compound 3.16 µM) of the same compound?
Answer: 17%

Question: What about the viability, T/C (second compound 10 µM, first compound 10 µM) of the same compound?
Answer: 17.1%
